Consider 4 molecules from paper PMC11013662, “New Thiosemicarbazide Derivatives with Multidirectional Biological Action” (Molecules, 2024).

≈ marks a conversion by molar mass, not a printed value. Like-named read-outs stand apart in the source and are kept apart here.

The test system of one series is Rhabditis sp. Also noted: method as in PMID 35408557. Conditions: reference drug; cited from earlier work.
For series [1], the system named is SW 620 human metastatic colon cancer cells. Kind of series: MTT cytotoxicity assay. The format is cell-based. Conditions: Homo sapiens; SW 620, MTT, 72 h. The procedure:
Both lines were obtained from American Type Culture Collection (ATCC, Rockville, MD, USA). The culture used to grow the SW 620 cells was prepared in MEM (ThermoSci, Waltham, MA, USA). The V79 cells were cultured in RPMI (Biowest SAS, Nuaillé, France) with the addition of 20 mM HEPES (Biowest, Nuaillé, France), 10% fetal bovine serum (FBS, Sigma-Aldrich, St. Louis, MO, USA), 100 µg/mL of streptomycin, and 100 U/mL of penicillin (Gibco, Grand Island, NY, USA). […] The MTT assay was used to establish the cytotoxic activity of the studied compounds. […] The process starts with the preparation of 96-well plates by placing cells at a density of 1 × 10^4 per well and incubating them for 24 h to adhere. […] Next, cells were incubated for 72 h at 37 °C with a 5% CO2. Then, a solution of MTT (0.5 mg/mL) was added to each well and plates were incubated for 4 h more in the same conditions. To dissolve precipitated formazan crystals, a mixture of DMSO and isopropanol (in a 1:1 ratio, v/v) was used. […] Cell viability was determined as the percentage of MTT reduction in the treated cells compared to the control group (unexposed cells). The relative MTT level, represented as a percentage, was calculated using the formula [A]/[B] × 100, where [A] stands for the absorbance of the treated cell sample and [B] for the absorbance of unexposed to studied compounds sample (control group).
(Formazan colour is commonly taken as a measure of viable cells.)

In series [2] the test system is V79 Chinese hamster lung cells. Put plainly: MTT cytotoxicity assay. The format is cell-based. Conditions: Cricetulus griseus, V 79 normal cells, 72 h. The procedure:
Both lines were obtained from American Type Culture Collection (ATCC, Rockville, MD, USA). The culture used to grow the SW 620 cells was prepared in MEM (ThermoSci, Waltham, MA, USA). The V79 cells were cultured in RPMI (Biowest SAS, Nuaillé, France) with the addition of 20 mM HEPES (Biowest, Nuaillé, France), 10% fetal bovine serum (FBS, Sigma-Aldrich, St. Louis, MO, USA), 100 µg/mL of streptomycin, and 100 U/mL of penicillin (Gibco, Grand Island, NY, USA). The eligible level of cells confluence was 80–90%, and both cell cultures were maintained in a humidified incubator set at 37 °C with 5% CO2 until they reached it.
The MTT assay was used to establish the cytotoxic activity of the studied compounds. The mechanism of this method relies on enzymatic conversion of 3-(4,5-dimethylthiazol-2-yl)-2,5-diphentyltetrazolium bromide salt (MTT) into insoluble formazan crystals by mitochondrial dehydrogenases within viable cells.
The process starts with the preparation of 96-well plates by placing cells at a density of 1 × 10^4 per well and incubating them for 24 h to adhere. Afterwards, the cells were treated with different concentrations of thiosemicarbazide derivatives, from 20 to 100 µM, except the control group which remained not exposed. Next, cells were incubated for 72 h at 37 °C with a 5% CO2. Then, a solution of MTT (0.5 mg/mL) was added to each well and plates were incubated for 4 h more in the same conditions.
To dissolve precipitated formazan crystals, a mixture of DMSO and isopropanol (in a 1:1 ratio, v/v) was used. For the spectrophotometric survey, we used MultiscanGo from Thermo Scientific with the wavelength value set at 570 nm to measure absorbance.
Cell viability was determined as the percentage of MTT reduction in the treated cells compared to the control group (unexposed cells). The relative MTT level, represented as a percentage, was calculated using the formula [A]/[B] × 100, where [A] stands for the absorbance of the treated cell sample and [B] for the absorbance of unexposed to studied compounds sample (control group). […] To calculate IC50 values (concentration at which 50% of cell viability is inhibited), we used GraphPad Prism 8.0.1 software.

Series [3] concerns Staphylococcus aureus ATCC 43300. Put plainly: Broth microdilution MIC / MBC. The format is cell-based. Conditions: ATCC 43300 / MRSA. How it is done:
(§1) The microdilution method was used to determine the MIC values of newly synthesized compounds. The antimicrobial activity of the thiosemicarbazides series was tested on ten reference bacterial strains purchased from the American Type Culture Collection (ATCC). Seven Gram-positive reference strains (S. aureus ATCC 29213, S. aureus ATCC 43300, S. aureus ATCC 6538, S. aureus ATCC 25923, S. epidermidis ATCC 12228, M. luteus ATCC 10240, and B. cereus ATCC 10876) and three Gram-negative reference bacteria (K. pneumoniae ATCC 13883, E. coli ATCC 25922, S. typhimurium ATCC 14028) were used. These bacterial strains are representatives of microorganisms that can cause the most common opportunistic infections among humans. The bacteria were grown on Mueller–Hinton agar (MHA) plates before examination. To perform the assay, all bacteria were placed in sterile saline (0.85% NaCl) to obtain a suspension of the optical density of the 0.5 McFarland standard (1.50 × 10^8 colony-forming units (CFUs)/mL). A solution of the tested compounds was prepared in dimethyl sulfoxide (DMSO) at a concentration of 50 mg/mL as a stock solution.
(§2) A 96-well microtiter plate and microbroth two-fold dilution method was used to determine the minimum inhibitory concentration (MIC) according to the EUCAST (European Committee on Antimicrobial Susceptibility Testing) reference recommendation. The solutions were then diluted with Mueller–Hinton broth (MHB, Biomaxima, Lublin, Poland) medium to obtain a solution with a basic concentration of 1000 µg/mL. Then, using the two-fold dilution method with MHB, the tested compounds were introduced into the wells of the microplate to provide a final concentration in the range of 0.49 to 1000 µg/mL. Then, 2 μL of bacterial inoculum with a density of 0.5 McFarland standard was added into each well. Each well was filled with a total volume of 100 μL. Then, microtiter plates were incubated for 18 ± 2 h at 35 °C. After incubation, the growth of bacteria was monitored by a Biotek ELx800 (Biokom, Janki, Poland) spectrophotometer at 600 nm (OD600). The MIC assays were performed in triplicate.
(§3) A negative control with MHB and without tested compounds was used. Clinically used anti-bacterial agents, cefuroxime and vancomycin, were included as positive controls for the purpose of comparison in a concentration range from 0.007 to 15.625 µg/mL.
(§4) The in vitro antimicrobial activity of the tested compounds was determined by the MIC, which was defined as the lowest concentration of the compound tested at which no visible growth of the test bacteria was observed. The MBC (the minimum bactericidal concentration) is defined as the lowest concentration of antimicrobial agent resulting in reduction in the viability of the initial bacterial inoculum by ≥99.9% on the plate. Generally, an MBC/MIC ratio less than 4 is considered bactericidal for an antimicrobial, and an MBC/MIC > 8 is indicative of bacteriostatic activity. For the MBC test, the Mueller–Hinton agar (MHA, Biomaxima, Poland) plate assay was used. MBC was determined after the broth dilution period of an MIC test has been completed. After the MIC detection, 5 µL aliquots from each well were plated on an MHA plate and grown at 35 °C overnight. The MBC values were determined by observing the first clear area on the agar plate that has no observable bacterial growth.
For orientation: Broth dilution looks for growth in wells or tubes with falling amounts of substance.

For series [4], the system named is Staphylococcus aureus ATCC 25923. Kind of series: Broth microdilution MIC / MBC. The class given is cell-based. How it is done:
as §1, §2, §3, §4

Series [5] has as its system Bacillus cereus ATCC 10876. Kind of series: Broth microdilution MIC / MBC. Conditions: ATCC10876, B. cereus ATCC 10876. The class given is cell-based. How it is done: as §1, §2, §3, §4
Series [6] deals with Staphylococcus epidermidis ATCC 12228. Kind of series: Broth microdilution MIC / MBC. Conditions: ATCC12228, S. epidermidis ATCC 12228. The class given is cell-based. How it is done:
as §1, §2, §3, §4

The subject of series [7] is Micrococcus luteus ATCC 10240. Kind of series: Broth microdilution MIC / MBC. Conditions: ATCC10240, M. luteus ATCC 10240. The class given is cell-based. How it is done: as §1, §2, §3, §4
Series [8] relates to Staphylococcus aureus ATCC 6538. Put plainly: Broth microdilution MIC / MBC. The format is cell-based. Conditions: ATCC6538, S. aureus ATCC 6538. The procedure: as §1, §2, §3, §4

By LC50 is commonly meant the concentration that kills 50% of the test population. For the molecule `CCCSc1ccc2nc(NC(=O)OC)[nH]c2c1` [albendazole], the LC50 in the series with Rhabditis sp. was 19200 µg/mL (≈ 72500 µM).

For orientation: IC50 means the concentration that inhibits the measured activity by half. A high value points to a need for much substance. With `COc1cccc2c1C(=O)c1c(O)c3c(c(O)c1C2=O)C[C@@](O)(C(=O)CO)C[C@@H]3O[C@H]1C[C@H](N)[C@H](O)[C@H](C)O1` [Ref, Doxorubicin, reference compound], the IC50 stood at 1.83 ± 0.1 µM in series [1] and 0.46 ± 0.03 µM in [2].

One may read the MBC as the smallest concentration meeting the test's criterion for killing. Higher therefore signals weaker bactericidal potency. As a reminder, the MIC is the lowest concentration that inhibits growth of the organism. In [3], `CN[C@H](CC(C)C)C(=O)N[C@H]1C(=O)N[C@@H](CC(N)=O)C(=O)N[C@H]2C(=O)N[C@H]3C(=O)N[C@H](C(=O)N[C@H](C(=O)O)c4cc(O)cc(O)c4-c4cc3ccc4O)[C@H](O)c3ccc(c(Cl)c3)Oc3cc2cc(c3O[C@@H]2O[C@H](CO)[C@@H](O)[C@H](O)[C@H]2O[C@H]2C[C@](C)(N)[C@H](O)[C@H](C)O2)Oc2ccc(cc2Cl)[C@H]1O` [Van, vancomycin, reference compound] returned an MBC of 2 µg/mL (≈ 1.38 µM) and an MIC of 2 µg/mL (≈ 1.38 µM). In series [4] (ATCC25923), this molecule gave an MBC of 2 µg/mL (≈ 1.38 µM) and an MIC of 2 µg/mL (≈ 1.38 µM).

`CO/N=C(\C(=O)N[C@@H]1C(=O)N2C(C(=O)O)=C(COC(N)=O)CS[C@H]12)c1ccco1` [Cef, cefuroxime, reference compound]: the MIC stood at 31.2 µg/mL (≈ 73.6 µM) in [5]; 0.25 µg/mL (≈ 0.589 µM) in series [6]; 0.25 µg/mL (≈ 0.589 µM) in series [7]; 0.49 µg/mL (≈ 1.15 µM) in series [4] (ATCC25923, S. aureus ATCC 25923, read-out: MIC); 0.98 µg/mL (≈ 2.31 µM) in series [8].
